# Laboratory results reported in publication PMC9412362, “Design, Synthesis, and Characterization of Novel Coordination Compounds of Benzimidazole Derivatives with Cadmium” (Pharmaceutics, 2022).
# Where two headings read alike, the source gives them in different places.
# What was measured:
# [1] = system: C. parapsilosis ATCC 22019; assay: MIC, micro-dilution broth method; type: cell-based, Candida parapsilosis; conditions: Yeasts, micro-dilution broth with 2% glucose
# Procedure: (§1) Samples of complexes (about 20 mg) were digested in a concentrated mixture of 36% HCl (1 mL) and 65% HNO3 (6 mL). The contents of Cd (II) in the solid complexes were determined with an F-AAS spectrometer (Analytik Jena, contraAA 300, Jena, Germany) with a continuous source of light and using an air/acetylene flame (Analytik Jena, contraAA 300). Absorbances were measured at the analytical spectral lines at 228.8 nm for Cd (II). The limit of quantification was 0.004 mg/L for Cd (II). The solid samples were decomposed using an Anton Paar Multiwave 3000 (Graz, Austria) closed-system instrument. Mineralization was carried out for 45 min at 240 °C under a pressure of 60 bar. The contents of carbon, hydrogen, and nitrogen were determined with an instrument from Vario Micro Company Elementar Analysensysteme GmbH (Langenselbold, Germany). FTIR spectra were recorded with an IR Tracer-100 Schimadzu Spectrometer (4000–600 cm^−1 with an accuracy of recording of 1 cm^−1, Kyoto, Japan) using KBr pellets. The thermal analyses were carried out with a Netzsch STA 449 F1 Jupiter thermoanalyzer (Netzsch-Geratebau GmbH, Selb, Germany) coupled with a Netzsch Aeolos Quadro QMS 403 mass spectrometer (Netzsch-Geratebau GmbH, Selb, Germany). The samples were heated up to 1000 °C in corundum crucibles with a heating rate of 10 °C/min in an atmosphere of synthetic air (20% O2, 80% N2). The cytotoxic effects of the compounds were evaluated using glioblastoma (T98G), neuroblastoma (SK-N-AS), and lung adenocarcinoma (A549) cell lines and normal human skin fibroblasts (CCD-1059Sk). T98G and SK-N-AS cells were cultured in high-glucose DMEM and A549 cells were cultured in DMEM/F12, while CCD-1059Sk cells were cultured in MEM. All media were supplemented with 10% (FBS), 100 U/mL of penicillin, and […] of streptomycin (PenStrep). Cells were incubated at 37 °C in a humidified atmosphere of 5% CO2. Stock solutions were prepared by dissolving the compounds in sterile dimethyl sulfoxide (DMSO) to obtain a concentration of 50 mg/mL. The cells were seeded into sterile 96-well plates (Nunc) at a density of 1 × 10^5 cells/mL. After 24 h of incubation, the medium was removed from each well, and then the cells were incubated for the next 24 h with different concentrations of the tested compounds (1–100 µg/mL) in their respective media containing 2% FBS. The cytotoxicity of the compounds was evaluated using an MTT assay, which was based on the conversion of 3-(4,5-dimethylthiazol-2-yl)-2,5-diphenyltetrazolium bromide (MTT) into dark-blue formazan crystals. Briefly, after 24 h of incubation of the cells with varying concentrations of the tested compounds, all culture media were removed from the plates. The cells were washed with PBS, and then 100 µL of medium containing 10% MTT solution (5 mg/mL) was added to each well. After 3 h of incubation, 100 µL (per well) of 10% SDS buffer solution was added to solubilize the formazan crystals. After overnight incubation, the absorbance was measured at 570 nm using a microplate reader (Epoch, BioTek Instruments). Experiments were repeated twice, and the measurements in each experiment were run in triplicate. The viability of the investigated cells was expressed as the percentage of the viability of the untreated cells, and the results were transformed into IC50 values (expressed as mean ± SD). The complexes were screened for antibacterial and antifungal activity by using the micro-dilution broth method with Mueller–Hinton broth for the growth of bacteria or Mueller–Hinton broth with 2% glucose for the growth of fungi. […]
# C. albicans ATCC 102231 = assay: MIC, micro-dilution broth method; type: cell-based, Candida albicans; conditions: for MIC, C. albicans ATCC 102231: Yeasts, micro-dilution broth with 2% glucose
# Procedure: as §1
# C. glabrata ATCC 2091 = assay: MIC, micro-dilution broth method; type: cell-based; conditions: for MIC, C. glabrata ATCC 2091: Yeasts, micro-dilution broth with 2% glucose
# Procedure: as §1
# B. subtilis ATCC 6633 = assay: MIC, micro-dilution broth method; type: cell-based, Bacillus subtilis; conditions: Gram-positive bacteria, micro-dilution broth
# Procedure: as §1
# A549 cells = assay: MTT cytotoxicity assay, lung adenocarcinoma A549; type: cell-based, human; conditions: lung carcinoma A549, MTT assay after 24 h of incubation, read-out: IC50 ± SD, A549
# Procedure: as §1
# CCD-1059Sk cells = assay: MTT cytotoxicity assay, normal human skin fibroblasts CCD-1059Sk; type: cell-based; conditions: normal human fibroblasts CCD-1059Sk, MTT assay after 24 h of incubation; read-out: IC50 ± SD, CCD-1059-Sk
# Procedure: as §1
# P. aeruginosa ATCC 9027 = assay: MIC, micro-dilution broth method; type: cell-based, Pseudomonas aeruginosa; conditions: for MIC, P. aeruginosa ATCC 9027: Gram-negative bacteria
# Procedure: as §1
# B. cereus ATCC 10876 = assay: MIC, micro-dilution broth method; type: cell-based, Bacillus cereus; conditions: Gram-positive bacteria, micro-dilution broth
# Procedure: as §1
# E. coli ATCC 25922 = assay: MIC, micro-dilution broth method; type: cell-based, Escherichia coli; conditions: for MIC, E. coli ATCC 25922: Gram-negative bacteria
# Procedure: as §1
# M. luteus ATCC 10240 = assay: MIC, micro-dilution broth method; type: cell-based, Micrococcus luteus; conditions: Gram-positive bacteria, micro-dilution broth
# Procedure: as §1
# [2] = system: S. epidermidis ATCC 12228; assay: MIC, micro-dilution broth method; type: cell-based, Staphylococcus epidermidis; conditions: Gram-positive bacteria, micro-dilution broth
# Procedure: as §1
# S. aureus ATCC 25923 = assay: MIC, micro-dilution broth method; type: cell-based, Staphylococcus aureus; conditions: Gram-positive bacteria, micro-dilution broth
# Procedure: as §1
# P. mirabilis ATCC 12453 = assay: MIC, micro-dilution broth method; type: cell-based, Proteus mirabilis; conditions: for MIC, P. mirabilis ATCC 12453: Gram-negative bacteria
# Procedure: as §1
# T98G cells = assay: MTT cytotoxicity assay, glioblastoma T98G; type: cell-based, human; conditions: MTT assay after 24 h of incubation, read-out: IC50 ± SD, T98G
# Procedure: as §1
# [3] = system: S. typhimurium ATCC 14028; assay: MIC, micro-dilution broth method; type: cell-based, Salmonella Typhimurium; conditions: Gram-negative bacteria
# Procedure: as §1
# E. faecalis ATCC 29212 = assay: MIC, micro-dilution broth method; type: cell-based, Enterococcus faecalis; conditions: Gram-positive bacteria, micro-dilution broth
# Procedure: as §1
# K. pneumoniae ATCC 13883 = assay: MIC, micro-dilution broth method; type: cell-based, Klebsiella pneumoniae; conditions: for MIC, K. pneumoniae ATCC 13883: Gram-negative bacteria
# Procedure: as §1
# SK-N-AS cells = assay: MTT cytotoxicity assay, neuroblastoma SK-N-AS; type: cell-based, human; conditions: MTT assay after 24 h of incubation, read-out: IC50 ± SD, SK-N-AS
# Procedure: as §1
# [4] = Solubility in culture medium (MTT assay); type: physicochemical; conditions: culture medium of the MTT assay
# Procedure: Samples of complexes (about 20 mg) were digested in a concentrated mixture of 36% HCl (1 mL) and 65% HNO3 (6 mL). The contents of Cd (II) in the solid complexes were determined with an F-AAS spectrometer (Analytik Jena, contraAA 300, Jena, Germany) with a continuous source of light and using an air/acetylene flame (Analytik Jena, contraAA 300). Absorbances were measured at the analytical spectral lines at 228.8 nm for Cd (II). The limit of quantification was 0.004 mg/L for Cd (II). The solid samples were decomposed using an Anton Paar Multiwave 3000 (Graz, Austria) closed-system instrument. Mineralization was carried out for 45 min at 240 °C under a pressure of 60 bar. The contents of carbon, hydrogen, and nitrogen were determined with an instrument from Vario Micro Company Elementar Analysensysteme GmbH (Langenselbold, Germany). FTIR spectra were recorded with an IR Tracer-100 Schimadzu Spectrometer (4000–600 cm^−1 with an accuracy of recording of 1 cm^−1, Kyoto, Japan) using KBr pellets. […] The cytotoxic effects of the compounds were evaluated using glioblastoma (T98G), neuroblastoma (SK-N-AS), and lung adenocarcinoma (A549) cell lines and normal human skin fibroblasts (CCD-1059Sk). […] The cytotoxicity of the compounds was evaluated using an MTT assay, which was based on the conversion of 3-(4,5-dimethylthiazol-2-yl)-2,5-diphenyltetrazolium bromide (MTT) into dark-blue formazan crystals. […]
Compound,"MIC, C. parapsilosis ATCC 22019 [1]","MIC, C. albicans ATCC 102231 (C. albicans ATCC 102231)","MIC, C. glabrata ATCC 2091 (C. glabrata ATCC 2091)","MIC, B. subtilis ATCC 6633 (B. subtilis ATCC 6633)",IC50 (A549 cells),IC50 (CCD-1059Sk cells),"MIC, P. aeruginosa ATCC 9027 (P. aeruginosa ATCC 9027)","MIC, B. cereus ATCC 10876 (B. cereus ATCC 10876)","MIC, E. coli ATCC 25922 (E. coli ATCC 25922)","MIC, M. luteus ATCC 10240 (M. luteus ATCC 10240)","MIC, S. epidermidis ATCC 12228 [2]","MIC, S. aureus ATCC 25923 (S. aureus ATCC 25923)","MIC, P. mirabilis ATCC 12453 (P. mirabilis ATCC 12453)",IC50 (T98G cells),"MIC, S. typhimurium ATCC 14028 [3]","MIC, E. faecalis ATCC 29212 (E. faecalis ATCC 29212)","MIC, K. pneumoniae ATCC 13883 (K. pneumoniae ATCC 13883)",IC50 (SK-N-AS cells),also measured
"O.[Cl][Cd][Cl].c1cnc2[nH]c(-c3ccncc3)nc2c1 [C2, Cd(L2)Cl2∙H2O]",7.8 µg/mL,125 µg/mL,31.3 µg/mL,0.98 µg/mL,34.1 ± 0.55 µM,44.07 ± 0.33 µM,>1000 µg/mL,500 µg/mL,1000 µg/mL,7.8 µg/mL,500 µg/mL,1000 µg/mL,>1000 µg/mL,65.25 ± 0.63 µM,>1000 µg/mL,125 µg/mL,>1000 µg/mL,22.5 µM,
"O.O.[Cl][Cd][Cl].c1cncc(-c2nc3cccnc3[nH]2)c1 [C3, Cd(L3)Cl2∙2H2O]",15.6 µg/mL,125 µg/mL,31.3 µg/mL,7.8 µg/mL,47.2 ± 2.1 µM,40.4 ± 0.41 µM,125 µg/mL,>1000 µg/mL,125 µg/mL,7.8 µg/mL,1000 µg/mL,1000 µg/mL,31.3 µg/mL,55.7 ± 2.5 µM,125 µg/mL,>1000 µg/mL,250 µg/mL,34.5 ± 0.41 µM,
"O.[Cl][Cd][Cl].c1cc(-c2nc3ccncc3[nH]2)ccn1 [C1, Cd(L1)Cl2∙H2O]",15.6 µg/mL,500 µg/mL,62.5 µg/mL,7.8 µg/mL,,,>1000 µg/mL,500 µg/mL,1000 µg/mL,7.8 µg/mL,250 µg/mL,500 µg/mL,1000 µg/mL,,1000 µg/mL,125 µg/mL,1000 µg/mL,,solubility in culture medium [4]: Not determined due to low solubility in culture medium
Brc1cnc2[nH]c(-c3cccnc3)nc2c1 [L4],,,,,,> 362 µM,,,,,,,,,,,,,"MIC ([1]; Lodderomyces parapsilosis, ATCC22019): 1000 µg/mL; MIC (C. albicans ATCC 102231; Candida albicans, ATCC102231, read-out: MIC, C. albicans ATCC 102231): 500 µg/mL; MIC (C. glabrata ATCC 2091; Nakaseomyces glabratus, ATCC2091, read-out: MIC, C. glabrata ATCC 2091): > 1000 µg/mL; MIC (B. subtilis ATCC 6633; Bacillus subtilis, ATCC6633, read-out: MIC, B. subtilis ATCC 6633): 1000 µg/mL; IC50 (A549 cells; Homo sapiens): > 362 µM; MIC (P. aeruginosa ATCC 9027; Pseudomonas aeruginosa, ATCC9027, Gram-negative bacteria): > 1000 µg/mL; MIC (B. cereus ATCC 10876; Bacillus cereus, ATCC10876, read-out: MIC, B. cereus ATCC 10876): 1000 µg/mL; MIC (E. coli ATCC 25922; Escherichia coli, ATCC25922, Gram-negative bacteria): > 1000 µg/mL; MIC (M. luteus ATCC 10240; Micrococcus luteus, ATCC10240, read-out: MIC, M. luteus ATCC 10240): > 1000 µg/mL; MIC ([2]; Staphylococcus epidermidis, ATCC12228, read-out: MIC, S. epidermidis ATCC 12228): 1000 µg/mL; MIC (S. aureus ATCC 25923; Staphylococcus aureus, ATCC25923, read-out: MIC, S. aureus ATCC 25923): > 1000 µg/mL; MIC (P. mirabilis ATCC 12453; Proteus mirabilis, ATCC12453, Gram-negative bacteria): > 1000 µg/mL; IC50 (T98G cells; Homo sapiens): > 362 µM; MIC ([3]; Salmonella enterica): > 1000 µg/mL; MIC (E. faecalis ATCC 29212; Enterococcus faecalis, ATCC29212, read-out: MIC, E. faecalis ATCC 29212): 1000 µg/mL; MIC (K. pneumoniae ATCC 13883; Klebsiella pneumoniae, ATCC13883, Gram-negative bacteria): > 1000 µg/mL; IC50 (SK-N-AS cells; Homo sapiens, SK-N-AS, 24 h): > 362 µM"
